# Laboratory results from ChEMBL document CHEMBL4842376, “Design, synthesis and biological evaluation of novel hybrids targeting mTOR and HDACs for potential treatment of hepatocellular carcinoma” (Eur J Med Chem, 2021).
# pIC50: −log10 of the molar value. Calls of active or inactive are those of the source. The calls are words filed in the database; no cut-off is given here.
# Columns and labels:
# HepG2 [1] = test: Antiproliferative activity against human HepG2 cells assessed as inhibition of cell growth measured after 72 hrs by MTT assay; assay type: functional, cell-based; conditions: HepG2, 72 h
# MDA-MB-231 = test: cells; assay type: functional, cell-based; conditions: Homo sapiens, MDA-MB-231, 72 h
# Description: Antiproliferative activity against human MDA-MB-231 cells assessed as inhibition of cell growth measured after 72 hrs by MTT assay
# HCT-116 = test: cells; assay type: functional, cell-based; conditions: Homo sapiens, HCT-116, 72 h
# Description: Antiproliferative activity against human HCT-116 cells assessed as inhibition of cell growth measured after 72 hrs by MTT assay
# MCF7 = test: cells; assay type: functional, cell-based; conditions: Homo sapiens, MCF7, 72 h
# Description: Antiproliferative activity against human MCF7 cells assessed as inhibition of cell growth measured after 72 hrs by MTT assay
# HeLa = test: cells; assay type: functional, cell-based; conditions: Homo sapiens, 72 h
# Description: Antiproliferative activity against human HeLa cells assessed as inhibition of cell growth measured after 72 hrs by MTT assay
# CNE-2 = test: cells; assay type: functional, cell-based; conditions: Homo sapiens, CNE-2, 72 h
# Description: Antiproliferative activity against human CNE-2 cells assessed as inhibition of cell growth measured after 72 hrs by MTT assay
# Huh-7 = test: cells; assay type: functional, cell-based; conditions: Homo sapiens, Huh-7, 72 h
# Description: Antiproliferative activity against human Huh-7 cells assessed as inhibition of cell growth measured after 72 hrs by MTT assay
# Bel-7402 = test: Antiproliferative activity against human Bel-7402 cells assessed as inhibition of cell growth measured after 72 hrs by MTT assay; assay type: functional, cell-based; conditions: Bel-7402, 72 h
# PLC-PRF-5 = test: Antiproliferative activity against human PLC-PRF-5 cells assessed as inhibition of cell growth measured after 72 hrs by MTT assay; assay type: functional, cell-based; conditions: PLC-PRF-5, 72 h
# [2] = biological target: T1, Protein deacetylase HDAC6 (Homo sapiens) (UniProt Q9UBN7); test: Inhibition of HDAC6 (unknown origin) at 1 uM using Ac-peptide as a substrate pretreated for 15 mins followed by substrate addition relative to control
# T1 sequence (whole entry): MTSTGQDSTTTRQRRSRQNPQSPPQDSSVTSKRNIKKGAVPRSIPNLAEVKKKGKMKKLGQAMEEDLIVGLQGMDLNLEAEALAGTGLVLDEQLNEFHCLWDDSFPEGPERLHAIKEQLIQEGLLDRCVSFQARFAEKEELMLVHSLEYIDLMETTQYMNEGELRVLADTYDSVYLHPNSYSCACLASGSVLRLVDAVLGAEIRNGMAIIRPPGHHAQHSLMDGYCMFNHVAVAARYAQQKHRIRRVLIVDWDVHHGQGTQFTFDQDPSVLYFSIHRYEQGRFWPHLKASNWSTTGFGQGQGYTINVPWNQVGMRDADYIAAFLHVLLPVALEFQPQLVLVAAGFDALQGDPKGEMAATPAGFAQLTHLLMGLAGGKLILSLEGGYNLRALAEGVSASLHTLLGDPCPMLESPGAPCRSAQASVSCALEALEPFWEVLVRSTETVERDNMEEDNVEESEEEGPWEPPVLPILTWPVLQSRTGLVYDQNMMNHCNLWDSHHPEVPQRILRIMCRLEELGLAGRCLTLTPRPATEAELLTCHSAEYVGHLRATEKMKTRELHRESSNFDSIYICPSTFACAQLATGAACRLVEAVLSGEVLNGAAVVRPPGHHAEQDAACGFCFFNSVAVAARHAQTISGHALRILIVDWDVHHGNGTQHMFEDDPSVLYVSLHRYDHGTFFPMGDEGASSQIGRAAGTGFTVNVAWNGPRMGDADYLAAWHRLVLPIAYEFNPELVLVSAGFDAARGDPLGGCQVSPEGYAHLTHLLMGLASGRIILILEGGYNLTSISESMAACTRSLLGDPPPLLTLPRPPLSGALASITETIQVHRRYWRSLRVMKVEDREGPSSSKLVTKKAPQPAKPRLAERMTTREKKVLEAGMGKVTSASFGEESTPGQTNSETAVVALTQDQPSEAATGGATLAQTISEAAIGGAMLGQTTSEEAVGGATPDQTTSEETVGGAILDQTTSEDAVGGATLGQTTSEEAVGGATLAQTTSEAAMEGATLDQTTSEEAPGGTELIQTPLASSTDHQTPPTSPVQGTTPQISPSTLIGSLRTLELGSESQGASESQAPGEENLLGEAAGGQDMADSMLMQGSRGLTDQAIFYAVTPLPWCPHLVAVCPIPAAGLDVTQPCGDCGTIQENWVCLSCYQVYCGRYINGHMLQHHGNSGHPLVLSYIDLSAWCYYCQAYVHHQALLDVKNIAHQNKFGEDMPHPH
# Histone deacetylase 2 = Histone deacetylase 2 (Homo sapiens, UniProt Q92769)
# Sequence of Histone deacetylase 2 (Q92769 whole entry): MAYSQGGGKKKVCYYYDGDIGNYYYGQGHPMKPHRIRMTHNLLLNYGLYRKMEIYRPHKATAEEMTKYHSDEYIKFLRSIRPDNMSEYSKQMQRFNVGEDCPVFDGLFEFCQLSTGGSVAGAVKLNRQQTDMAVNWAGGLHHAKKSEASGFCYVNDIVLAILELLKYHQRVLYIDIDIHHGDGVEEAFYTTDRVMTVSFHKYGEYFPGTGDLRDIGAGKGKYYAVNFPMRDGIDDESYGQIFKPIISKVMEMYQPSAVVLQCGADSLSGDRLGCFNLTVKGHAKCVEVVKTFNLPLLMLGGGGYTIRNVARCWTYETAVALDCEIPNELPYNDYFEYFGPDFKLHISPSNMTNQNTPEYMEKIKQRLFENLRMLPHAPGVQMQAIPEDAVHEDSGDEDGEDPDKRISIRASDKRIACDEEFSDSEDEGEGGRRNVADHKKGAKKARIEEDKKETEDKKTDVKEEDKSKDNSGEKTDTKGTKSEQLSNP
# [3] = biological target: T2, Protein deacetylase HDAC6 (Homo sapiens, UniProt Q9UBN7); test: Inhibition of HDAC6 (unknown origin) using Ac-peptide as a substrate pretreated for 15 mins followed by substrate addition
# T2 sequence (Q9UBN7 whole entry): T1 sequence (whole entry)
# L02 = test: cells; assay type: ADME, cell-based; conditions: Homo sapiens, L02, 72 h
# Description: Cytotoxicity against human L02 cells assessed as reduction in cell viability measured after 72 hrs by MTT assay
# [4] = biological target: Histone deacetylase (Homo sapiens) (UniProt Q13547+O15379+Q9UBN7+Q92769+Q9UQL6+Q8WUI4+Q9BY41+Q96DB2+P56524+Q9UKV0+Q969S8); test: Inhibition of HDAC in human HepG2 cells assessed as upregulation of histone H3 acetylation at 6 uM measured after 24 hrs by western blot analysis; assay type: cell-based
# HepG2 [5] = test: Induction of cell cycle arrest in human HepG2 cells assessed as accumulation of cells in G2/M phase at 1.5 uM measured after 24 hrs by propidium iodide staining based flow cytometry analysis (Rvb= 17.8 to 18.5%); assay type: functional
# HepG2 [6] = test: Induction of cell cycle arrest in human HepG2 cells assessed as accumulation of cells in G0/G1 phase at 6 uM measured after 24 hrs by propidium iodide staining based flow cytometry analysis (reference value: 52.7 to 63.2%); assay type: functional
# HepG2 [7] = test: Induction of apoptosis in human HepG2 cells assessed as early apoptotic cells at 2.5 uM measured after 24 hrs by Annexin V-FITC/PI staining based flow cytometry analysis (Rvb= 6.15%); assay type: functional
# HepG2 [8] = test: Induction of apoptosis in human HepG2 cells assessed as necrotic cells at 2.5 uM measured after 24 hrs by Annexin V-FITC/PI staining based flow cytometry analysis (Rvb= 0.082%); assay type: functional
# HepG2 [9] = test: Induction of apoptosis in human HepG2 cells assessed as live cells at 5 uM measured after 24 hrs by Annexin V-FITC/PI staining based flow cytometry analysis (Rvb= 84.6%); assay type: functional
# HepG2 [10] = test: Induction of apoptosis in human HepG2 cells assessed as live cells at 10 uM measured after 24 hrs by Annexin V-FITC/PI staining based flow cytometry analysis (Rvb= 84.6%); assay type: functional
# HepG2 [11] = test: Induction of apoptosis in human HepG2 cells assessed as late apoptotic cells at 10 uM measured after 24 hrs by Annexin V-FITC/PI staining based flow cytometry analysis (Rvb= […]); assay type: functional
# HepG2 [12] = test: Antimigratory activity in human HepG2 cells assessed as reduction in wound closure measured after 24 to 48 hrs by scratch wound healing assay; assay type: functional, cell-based; conditions: dose 1.5-6 µM, time 24-48 hrs
# [13] = Metabolic stability in rat liver microsomes assessed as parent compound remaining at 10 ug/ml measured after 1 hr in the presence of NADPH by HPLC analysis; assay type: ADME, Microsome; conditions: at 10 µg/mL
SMILES,pIC50 (HepG2 [1]),pIC50 (MDA-MB-231),pIC50 (HCT-116),pIC50 (MCF7),pIC50 (HeLa),pIC50 (CNE-2),pIC50 (Huh-7),pIC50 (Bel-7402),pIC50 (PLC-PRF-5),inhibition [2] [%],pIC50 (Histone deacetylase 2),pIC50 [3],pIC50 (L02),inhibition [4],Activity (HepG2 [5]) [%],Activity (HepG2 [6]) [%],Activity (HepG2 [7]) [%],Activity (HepG2 [8]) [%],Activity (HepG2 [9]) [%],Activity (HepG2 [10]) [%],further results
Nc1ncnc2c1c(-c1cnc3[nH]ccc3c1)nn2CCCCCCCCC(=O)NO,5.52,4.96,5.26,4.61,5.13,5.64,5.13,4.72,4.83,99.2,7.62,8.02,4.45,Active,19.4,66.6,17.4,0.56,77.5,62,"Activity (HepG2 [11]): 17.8%; Activity (HepG2 [12]): Dose-Dependent Effect; remaining at 1 h, 10 ug/ml ([13]; liver microsomes, read-out: Stabilty): 55.2%"
Nc1nc2cc(-c3nn(CCCCCCC(=O)NO)c4ncnc(N)c34)ccc2o1,5.79,5.07,5.27,4.93,5.19,5.36,5.24,< 4.30,< 4.30,99,8.49,7.99,4.61,Active,14.8,73.3,28.1,0.15,69.6,42.2,"Activity (HepG2 [11]): 27.2%; Activity (HepG2 [12]): Dose-Dependent Effect; Stabilty ([13]; microsomes, 1 h): Stable"
